Measured values taken from US9399123B2, “Silicone adhesive compositions” (Momentive Performance Materials Inc., priority 2012, dated 2016).

Test: DSC of drug crystals in adhesive (heat of melting, solid drug fraction)
Format: physicochemical
Method: To further study the interaction, the drug containing samples were analyzed via DSC using a TA Instruments Differential Scanning Calorimeter. The ionic silicone and PDMS-based samples containing ibuprofen, as well as pure drug were heated from room temperature to 200° C. at a rate of 5° C./min. The drug melting point, Tm was identified at 77° C. […] This evidence of differential interactions could explain the difference in ibuprofen release through these systems (FIGS. 5(b) and (c)).
The difference in drug compatibility with the ionic silicone adhesive vis-á-vis the PDMS adhesive was determined via DSC as described in Example 12 above. The free drug, and drug loaded PDMS and ionic silicone adhesive were subjected to a heating and cooling cycle under air atmosphere. The DSC thermograms are show in FIG. 9(b).
To quantify the result and the difference in compatibility, the areas were calculated as normalized heat of melting of drug crystals present in the formulation. The values were attributed to the solid fraction of distinct drug crystals present in the formulation, and the following results were obtained: […]

Which results are given for C[C@]12CC[C@H]3[C@@H](CCC4=CC(=O)CC[C@@]43C)[C@@H]1CC[C@@H]2O [Testosterone]?
Heat of Melting (DSC, normalized heat of melting of drug crystals): 73 J/gm; % Solid drug fraction (from heat of melting relative to free testosterone (100% assigned)): 100%
